“Also recorded” adds a separate entry of the source.
Columns and labels:
hCD95 = assay: Cleavage of recombinant human CD95 proteins/peptides by ELANE (SDS-PAGE, mass spectrometry); format: biochemical; settings: recombinant aa 1-173 and aa 212-335
Procedure: Identification of ELANE cleavage sites in CD95 by mass spectrometry. Recombinant human C-terminal CD95 (aa 212-335, MyBioSource, 10 μg) or recombinant N-terminal CD95 (aa 1-173, ThermoFisher Scientific, 10 μg) were digested with human ELANE (0.1 μg) for 2 h at 37° C., and reactions were stopped with SDS-PAGE loading buffer. Proteins were run on 20% SDS-PAGE gels, stained with Coomassie Blue (ThermoFisher Scientific), and bands were excised for mass spectrometric analyses. Proteins were extracted from excised bands.
Analysis of recombinant peptides by mass spectrometry. Recombinant peptides (10 μM) corresponding to aa 214-([…])-231 (SEQ ID NO:6) or 317-([…])-335 (SEQ ID NO:7) of human CD95 (ThermoFisher Scientific) were incubated with ELANE (0.1-0.2 μM) at 37° C. for 15-30 min. Reactions were stopped with 0.1% formic acid.

[1] = Assessment of potential side-effects in tumor-free C57BL/6 mice; format: in vivo
Procedure: Assessment of potential side-effects. ELANE or PMSF-ELANE (11.6 μg/100 μL) were injected into the 4th mammary fat pad of the right ventral side pad of tumor-free C57BL/6 mice once/day for 5 days. One day after the last injection, mice were studied for potential side-effects. Body weight and spleen weight were measured. Apoptosis at the injection site was studied by isolating, fixing, and staining mammary adipose tissue for TUNEL, cCASP3, and cPARP using identical methods described for tumors above. Mammary adipose tissue immune cell populations at the injection site were determined by flow cytometry using identical methods described for tumors above. Liver function was assessed by measuring plasma ALT activity with the Alanine Transaminase Colorimetric Activity Assays Kit (Cayman Chemical).

[2] = test system: E0771 and B16F10 1° and 2° tumors; assay: Abscopal effect studies; format: in vivo, C57BL/6 mice
Procedure: Abscopal effect studies. For the E0771 model, 0.5×10^6 cells were injected into the 4th mammary fat pad of the right ventral side (1° tumor) and 0.4×10^6 cells were injected into the 4th mammary fat pad of the left ventral side (2° tumor) of C57BL/6 mice. Once the 1° tumor reached ˜100 mm^3, ELANE or PMSF-ELANE (11.6 μg/100 μL) were injected IT into the 1° tumor once/day for 5 days, and 1° and 2° tumor volumes were measured by calipers. For the B16F10 model, 0.5×10^6 cells were injected into the flank (1° tumor). 7 days later, 0.2×10^6 cells were injected into the lateral tail vein to create 2° lung metastases. Once the 1° tumor reached ˜100 mm^3, ELANE or PMSF-ELANE (11.6 μg/100 μL) were injected IT into the 1° tumor once/day for 5 days, and the 1° tumor volume was measured by calipers. Lungs were excised 10 days after the final ELANE treatment, and 2° lung metastases were counted. For CD8^+ T cell depletion, anti-mouse CD8α (clone 2.43, Bio X Cells) or rat IgG2b (isotype control, Bio X Cells) were injected IV (200 μg/injection) 3 days before the first ELANE treatment, and once/week after the last ELANE treatment. CD8^+ T cell depletion was confirmed by flow cytometry.
For the ‘spillover control’, 0.5×10^6 E0771 cells were injected into the 4th mammary fat pad of the left ventral side (2° tumor). ELANE or PMSF-ELANE (11.6 μg/100 μL) were injected into the tumor-free 4th mammary fat pad of the right ventral side pad once/day for 5 days, and 2° tumor volume was measured by calipers.
For the ‘specificity control’, 0.5×10^6 E0771 cells were injected into the into the 4th mammary fat pad of the right ventral side (1° tumor) and 7 days later, 1×10^6B16F10 cells were injected into the flank (2° tumor). Once the 1° tumor reached ˜100 mm^3, ELANE or PMSF-ELANE (11.6 μg/100 μL) were injected IT into the 1° tumor once/day for 5 days, and 1° and 2° tumor volumes were measured by calipers.

[3] = test system: tumors (MDA-MB-231, A549, MEL888, M1, 4195, E0771, LLC1, B16F10); assay: Intra-tumoral treatment of tumor models (xenograft, PDX, syngeneic); format: in vivo, mice
Procedure: Tumor inoculation and treatment. MDA-MB-231 cells (2×10^6), A549 cells (2×10^6) with Matrix Type 3), or MEL888 cells (2×10^6 with Matrix Type 3) were injected into athymic nude mice (Charles River); M1 or 4195 cells (50,000) were injected into NOD.SCID mice (JAX); and E0771 cells (0.5×10^6), LLC1 cells (0.5×10^6), or B16F10 cells (1×10^6), were injected into C57BL/6 mice (JAX). For TNBC models (MDA-MB-231, E0771, M1, 4195), cells were injected into the 4th mammary fat pad of the right ventral side. For all other models (A549, LLC1, MEL888, B16F10), cells were injected into the flank. Once tumors reached ˜100 mm^3, ELANE or PMSF-ELANE (11.6 μg/100 μL), or neutrophil medias or HSA (50 μg/100 μL) were delivered IT once/day for 5 days. Tumor volume was assessed by calipers, and experiments were terminated when tumor volume in control mice reached >1000 mm^3.
Tumor immunohistochemistry. Tumors were fixed in 4% paraformaldehyde in PBS for 24 h, embedded in paraffin blocks, and sectioned (5 μm). Slides were stained with cCASP3 (9661) and cPARP (9625) antibodies from Cell Signaling Technology. Signals were developed using the VECTASTAIN ABC kit (Vector Laboratories) or fluorescently-labeled secondary antibodies (melanoma models). For the TUNEL assay, staining was performed with the DeadEnd™ colorimetric or fluorometric TUNEL systems (Promega). Cell nuclei were labeled with haematoxylin or Hoechst 33342 (ThermoFisher Scientific). Images were obtained with a Nikon Eclipse Ti2 microscope and analyzed using NIS-Elements software.

ELANE: neutrophil elastase, a serine protease released by human PMNs
cleavage of CD95 N- or C-terminal domain (hCD95): preferentially cleaved the C-terminal domain; also recorded: degrades the C-terminal domain of purified CD95 | side effects ([1]; ELANE 12 μg/day into mammary fat pads): did not produce evident side effects | apoptosis at injection site ([1]; ELANE injected into tumor-free C57BL/6 mice): no evidence of apoptosis was found | number of 2° lung metastases ([2]; 1° B16F10 tumor treated, 12 μg/day for 5 days): lowered the number of lung metastases | tumorigenesis in 2° B16F10 tumor (specificity control) ([2]; 1° E0771 tumor treated): did not impact tumorigenesis in a 2° B16F10 tumor | tumorigenesis at 1° and 2° E0771 tumors ([2]; 1° tumor treated, 12 μg/day for 5 days): attenuated tumorigenesis at both sites | abscopal effect after depleting CD8+ T cells ([2]; both models): attenuated ELANE's abscopal effect in both models | tumorigenesis after injection into contralateral site ([2]; opposite the tumor, tumor-bearing mice): failed to attenuate tumorigenesis | therapeutic benefit, dose finding ([3]; E0771 TNBC model, IT, 12 μg/day): good therapeutic benefit that was reproducible | tumor growth ([3]; ELANE 12 μg/day IT, TNBC, lung cancer, melanoma models): attenuated tumor growth in all models tested | staining for TUNEL, cPARP, and cCASP3 in tumors ([3]; ELANE IT): increase in staining for TUNEL, cPARP, and cCASP3 in all ELANE-treated tumors | tumors with a crater ([3]; all immunocompetent models tested): ~40% | craters in tumor-free mice and immunocompromised cancer models ([3]; mouse, in vivo): Craters were not observed

Reference: patent publication US12611443B2, “Methods and compositions related to therapeutic peptides for cancer therapy” (THE UNIVERSITY OF CHICAGO, priority 2018, dated 2026)
